Experimental data published in paper PMC7269367 (Chemical research in toxicology, 2019).

Legend:
[1] = system: Dhcr7 / cholesterol biosynthesis in Neuro2a cells; assay: Cellular sterol levels in Neuro2a cells after exposure; type: cell-based, Mouse; details: 100 nM; for cellular accumulation of 7-DHC, less than the accumulation caused by C10-BAC: 72 hours; for cellular desmosterol and cholesterol: 72 hour exposure, serum-free media, relative to Control
[2] = target: T1, recombinant CYP4F2 (Homo sapiens, UniProt P78329); assay: BAC consumption by human recombinant CYP4F2; type: in vitro ADME; details: for effective inhibitor of recombinant CYP4F2 (C16-BAC consumption): inhibitor 1 μM, C16-BAC 2 μM, 50 nM P450, 20 minutes
T1 sequence (P78329 5-520): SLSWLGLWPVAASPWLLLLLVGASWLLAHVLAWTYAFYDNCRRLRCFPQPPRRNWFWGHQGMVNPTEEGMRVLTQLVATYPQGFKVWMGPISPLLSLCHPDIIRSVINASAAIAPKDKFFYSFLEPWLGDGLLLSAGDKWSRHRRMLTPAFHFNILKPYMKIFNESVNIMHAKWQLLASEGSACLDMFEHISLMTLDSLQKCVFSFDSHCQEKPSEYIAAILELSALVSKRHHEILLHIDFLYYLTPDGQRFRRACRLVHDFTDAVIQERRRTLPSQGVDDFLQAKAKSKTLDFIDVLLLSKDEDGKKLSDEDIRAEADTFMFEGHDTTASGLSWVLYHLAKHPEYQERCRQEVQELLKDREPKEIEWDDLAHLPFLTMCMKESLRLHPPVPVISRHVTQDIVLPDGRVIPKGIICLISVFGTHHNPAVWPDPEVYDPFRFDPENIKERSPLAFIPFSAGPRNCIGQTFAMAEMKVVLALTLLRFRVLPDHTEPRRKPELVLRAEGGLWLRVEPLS

[3] = Time-courses of C10-BAC depletion and metabolite formation in HLM; details: HLM 0.2 mg/mL
[4] = Metabolic stability of BACs in HLM; type: in vitro ADME, human; details: BAC 2 μM incubated separately, HLM 1 mg/mL, NADPH-dependent consumption
[5] = target: recombinant CYP2D6 (Homo sapiens, UniProt P10635); assay: BAC consumption by human recombinant CYP2D6; type: in vitro ADME; details: 2 μM substrate, 50 nM P450, 30-minute incubation, NADPH
[6] = target: recombinant CYP3A4 (Homo sapiens, UniProt P08684); assay: BAC consumption by human recombinant CYP3A4; type: in vitro ADME; details: 2 μM substrate, 50 nM P450, 30-minute incubation, NADPH
[7] = target: T2, recombinant CYP4F12 (Homo sapiens, UniProt Q9HCS2); assay: BAC consumption by human recombinant CYP4F12; type: in vitro ADME; details: for substrate consumed by recombinant CYP4F12: 50 nM P450, 30-minute incubation, NADPH
T2 sequence (Q9HCS2 1-524): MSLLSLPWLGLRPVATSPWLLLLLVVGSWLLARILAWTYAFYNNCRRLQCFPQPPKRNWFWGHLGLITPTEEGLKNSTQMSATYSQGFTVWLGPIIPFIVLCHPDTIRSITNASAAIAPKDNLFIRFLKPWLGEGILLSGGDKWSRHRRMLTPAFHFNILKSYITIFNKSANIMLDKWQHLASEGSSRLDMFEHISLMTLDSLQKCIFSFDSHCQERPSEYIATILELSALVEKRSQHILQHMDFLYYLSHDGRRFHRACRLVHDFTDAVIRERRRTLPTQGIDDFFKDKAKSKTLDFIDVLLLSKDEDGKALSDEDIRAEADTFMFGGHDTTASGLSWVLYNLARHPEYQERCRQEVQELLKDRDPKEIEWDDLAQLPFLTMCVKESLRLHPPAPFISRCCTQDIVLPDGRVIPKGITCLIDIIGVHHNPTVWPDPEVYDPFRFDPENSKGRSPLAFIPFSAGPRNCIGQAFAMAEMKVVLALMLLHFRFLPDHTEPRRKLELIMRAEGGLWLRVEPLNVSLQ

[8] = Kinetic characterization of C10-BAC hydroxylation in HLM; type: in vitro ADME, human; details: HLM 0.04 mg/mL, NADPH, 0.1 to 128 μM C10-BAC, initial rates
[9] = system: 3β-hydroxysterol-Δ^7-reductase (DHCR7); details: at nM concentrations; cited from earlier work
[10] = target: T3, recombinant CYP2A6 (Homo sapiens, UniProt P11509); assay: BAC consumption by human recombinant CYP2A6; type: in vitro ADME; details: 2 μM substrate, 50 nM P450, 30-minute incubation, NADPH
T3 sequence (P11509 1-494): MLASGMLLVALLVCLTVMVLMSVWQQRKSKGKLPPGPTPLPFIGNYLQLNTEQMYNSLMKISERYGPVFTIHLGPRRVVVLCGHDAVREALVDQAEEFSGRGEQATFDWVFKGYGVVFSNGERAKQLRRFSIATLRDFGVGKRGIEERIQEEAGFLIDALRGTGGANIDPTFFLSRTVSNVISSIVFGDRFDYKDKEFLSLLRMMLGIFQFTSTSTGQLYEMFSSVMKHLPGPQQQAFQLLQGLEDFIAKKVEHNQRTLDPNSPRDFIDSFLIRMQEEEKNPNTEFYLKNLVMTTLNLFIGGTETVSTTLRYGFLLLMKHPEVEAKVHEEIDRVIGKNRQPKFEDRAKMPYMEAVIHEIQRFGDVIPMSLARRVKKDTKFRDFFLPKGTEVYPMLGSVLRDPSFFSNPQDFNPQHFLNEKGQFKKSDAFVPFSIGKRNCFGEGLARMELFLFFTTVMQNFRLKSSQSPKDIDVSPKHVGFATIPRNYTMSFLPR

Sequence of recombinant CYP2D6 (P10635 whole entry): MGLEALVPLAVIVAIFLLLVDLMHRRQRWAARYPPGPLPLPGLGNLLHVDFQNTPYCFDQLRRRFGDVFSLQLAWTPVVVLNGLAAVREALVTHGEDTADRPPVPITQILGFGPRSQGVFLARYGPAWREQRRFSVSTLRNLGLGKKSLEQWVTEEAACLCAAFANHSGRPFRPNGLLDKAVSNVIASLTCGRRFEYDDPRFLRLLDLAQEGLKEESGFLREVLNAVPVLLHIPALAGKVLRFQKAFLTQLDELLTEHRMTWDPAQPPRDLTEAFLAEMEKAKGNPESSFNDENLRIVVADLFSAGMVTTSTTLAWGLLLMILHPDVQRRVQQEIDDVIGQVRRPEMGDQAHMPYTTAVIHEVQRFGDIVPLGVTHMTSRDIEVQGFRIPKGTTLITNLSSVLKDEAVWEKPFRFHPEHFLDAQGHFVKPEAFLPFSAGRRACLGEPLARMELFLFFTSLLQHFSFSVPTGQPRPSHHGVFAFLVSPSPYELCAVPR
Sequence of recombinant CYP3A4 (P08684 whole entry): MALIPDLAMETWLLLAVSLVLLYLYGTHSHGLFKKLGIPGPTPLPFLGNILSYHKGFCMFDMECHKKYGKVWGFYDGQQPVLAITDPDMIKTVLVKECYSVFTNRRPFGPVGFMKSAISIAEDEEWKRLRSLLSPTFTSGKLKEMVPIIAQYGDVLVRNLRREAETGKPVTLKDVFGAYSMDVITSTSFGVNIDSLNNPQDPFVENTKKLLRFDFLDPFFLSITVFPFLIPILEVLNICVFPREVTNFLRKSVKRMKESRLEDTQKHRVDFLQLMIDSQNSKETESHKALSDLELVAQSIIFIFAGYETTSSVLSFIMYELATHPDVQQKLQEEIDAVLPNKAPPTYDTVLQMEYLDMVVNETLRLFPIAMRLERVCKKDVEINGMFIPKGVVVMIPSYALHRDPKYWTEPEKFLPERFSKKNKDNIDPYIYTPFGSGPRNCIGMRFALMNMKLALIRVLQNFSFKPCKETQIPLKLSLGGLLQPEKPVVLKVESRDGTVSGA

SMILES: C[N+](C)(CCCCCCCCCCO)Cc1ccccc1.[Cl-] [ω-hydroxy-C10-BAC]
- cellular accumulation of 7-DHC, less than the accumulation caused by C10-BAC [1]: over 2 orders of magnitude

SMILES: CC(O)CCCCCCCC[N+](C)(C)Cc1ccccc1.[Cl-] (stereo not shown) [(ω−1)-hydroxy-C10-BAC]
- cellular accumulation of 7-DHC, less than the accumulation caused by C10-BAC [1]: over 2 orders of magnitude

SMILES: CCCCc1ccc(N=CNO)c(C)c1 [HET0016]
- effective inhibitor of recombinant CYP4F2 (C16-BAC consumption) [2]: essentially complete inhibition
- effect on (ω−1)-ketone formation from C10-BAC in HLM ([3]; inhibitor 1 μM, C10-BAC 680 nM): suppressing
- effect on C10-BAC (ω−1)-hydroxylation / oxidation at the (ω−1)-position in HLM ([3]; inhibitor 1 μM, C10-BAC 680 nM): promoted
- effect on C10-BAC ω-hydroxylation (ω-hydroxy metabolite formation) in HLM ([3]; inhibitor 1 μM, C10-BAC 680 nM): nearly complete inhibition
- effect on ω-carboxylic acid formation from C10-BAC in HLM ([3]; inhibitor 1 μM, C10-BAC 680 nM): nearly complete inhibition

SMILES: CCCCCCCCCC[N+](C)(C)Cc1ccccc1.[Cl-] [C10-BAC]
- apparent half-life in HLM [4]: approximately 1 minutes
- substrate consumed by recombinant CYP2D6 [5]: essentially all
- substrate consumed by recombinant CYP3A4 [6]: 15%
- substrate consumed by recombinant CYP4F12 ([7]; 2 μM substrate): essentially all
- Vmax of (ω−1)-hydroxylation [8]: 126 pmol/min/mg
- Vmax of ω-hydroxylation [8]: 380 pmol/min/mg
- Km ([8]; read-out: Km of (ω−1)-hydroxylation): 0.13 µM
- cellular desmosterol and cholesterol [1]: significant decreased level
- inhibition of DHCR7 in the cholesterol biosynthesis pathway [9]: inhibit
- C10-BAC concentration remaining at the 4-minute time point ([3]; 680 nM initial substrate, NADPH, no inhibitor): 341 ± 7 nM

SMILES: CCCCCCCCCCCCCC[N+](C)(C)Cc1ccccc1.[Cl-] [C14-BAC]
- apparent half-life in HLM [4]: ~6 min

SMILES: C=C[C@H]1C[N@@]2CC[C@H]1C[C@@H]2[C@@H](O)c1ccnc2ccc(OC)cc12 [quinidine]
- inhibition of C16-BAC consumption by recombinant CYP4F12 ([7]; inhibitor 1 μM alone, C16-BAC 2 μM, 50 nM P450, 20 minutes): did not inhibit
- effective inhibitor of recombinant CYP4F2 (C16-BAC consumption) [2]: not
- effect on C10-BAC (ω−1)-hydroxylation / oxidation at the (ω−1)-position in HLM ([3]; inhibitor 1 μM, C10-BAC 680 nM): primarily inhibitory
- effect on C10-BAC ω-hydroxylation (ω-hydroxy metabolite formation) in HLM ([3]; inhibitor 1 μM, C10-BAC 680 nM): did not inhibit
- effect on ω-carboxylic acid formation from C10-BAC in HLM ([3]; inhibitor 1 μM, C10-BAC 680 nM): partial suppression

SMILES: CCCCCCCCCCCCCCCC[N+](C)(C)Cc1ccccc1.[Cl-] [C16-BAC]
- apparent half-life in HLM [4]: ~15 min
- substrate consumed by recombinant CYP2D6 [5]: 77%
- substrate consumed by recombinant CYP4F12 ([7]; 2 μM substrate): 88%
- C16-BAC percent remaining with recombinant CYP4F12, HET0016 alone ([7]; 2 μM substrate, 50 nM P450, 20 minute incubation, HET0016 1 μM, mean ± SD, n = 3): 49% ± 6%
- C16-BAC percent remaining with recombinant CYP4F12, no inhibitor ([7]; 2 μM substrate, 50 nM P450, 20 minute incubation, no inhibitor, mean ± SD, n = 3): 26% ± 4%
- substrate consumed by recombinant CYP2A6 [10]: 5%
- substrate consumed by recombinant CYP4F2 ([2]; 2 μM substrate, 50 nM P450, 30-minute incubation, NADPH): 45%

SMILES: Cl.Cl.Clc1ccccc1CNCC1CCC(CNCc2ccccc2Cl)CC1 (stereo not shown) [AY9944, reference compound]
- cellular desmosterol and cholesterol [1]: significant decreased level
